For data set [1] the following is noted: ester bond.
The next data set deals with B16 4A5 cells. In words: B16 4A5 cell viability, MTS assay. Format: cell-based, mouse. Particulars: SDS 0.05%, 72 h, compared to untreated cells. The procedure: B16 4A5 cells were seeded in 24-well plates at 20,000 cells/well, 24 h before the beginning of the treatment with test compounds at 5 concentrations, in triplicates (n=3). […] Additionally, DMSO at 0.1%, used for solubilization of the test compounds, was tested in parallel. The treatments were performed in culture medium containing only 1% of FBS. […] The effects of the compounds on B16 4A5 viability was assessed. To this purpose, cells were incubated during 72 h with 5 concentrations of the compounds, were left untreated, treated with SDS or with DMSO 0.1%.
(Formazan colour is commonly taken as a measure of viable cells.)

The next data set concerns the target SIK2 (h) (Homo sapiens (Human), UniProt Q9H0K1). In words: SIK2 kinase activity, Eurofins KinaseProfiler ([γ-33P]-ATP filter assay). Format: biochemical. The procedure:
(§1) SIK1, 2 and 3 kinase activity was assessed using a Eurofins Cerep S.A. (‘Eurofins’) KinaseProfiler. All compounds were prepared to 50× final assay concentration in 100% DMSO. This working stock of the compound was added to the assay well as the first component in the reaction, followed by the remaining components as detailed in the general assay protocols below. In the standard KinaseProfiler service, there is no pre-incubation step between the compound and the kinase prior to initiation of the reaction. The positive control well contains all components of the reaction, except the compound of interest; however, DMSO (at a final concentration of 2%) is included in these wells to control for solvent effects. The blank wells contain all components of the reaction, with a reference inhibitor replacing the compound of interest. This abolishes kinase activity and establishes the base-line (0% kinase activity remaining).
SIK2 (h) was incubated with 8 mM MOPS pH 7.0, 0.2 mM EDTA, 100 μM […], 10 mM Magnesium acetate and [γ-33P-ATP](specific activity and concentration as required). The reaction was initiated by the addition of the Mg/ATP mix. After incubation for 40 minutes at room temperature, the reaction was stopped by the addition of phosphoric acid to a concentration of 0.5%, 10 μL of the reaction was then spotted onto a P30 filtermat and washed four times for 4 minutes in 0.425% phosphoric acid and once in methanol prior to drying and scintillation counting.

Another data set addresses SIK (h) / SIK1 (Homo sapiens (Human), UniProt P57059). As to the kind of experiment: SIK1 kinase activity, Eurofins KinaseProfiler ([γ-33P]-ATP filter assay). Format: biochemical. The procedure: as §1
SIK (h) was incubated with 8 mM MOPS pH 7.0, 0.2 mM EDTA, 100 μM […], 10 mM Magnesium acetate and [γ-33P]-ATP (specific activity and concentration as required). The reaction was initiated by the addition of the Mg/ATP mix. After incubation for 40 minutes at room temperature, the reaction was stopped by the addition of phosphoric acid to a concentration of 0.5%, 10 μL of the reaction was then spotted onto a P30 filtermat and washed four times for 4 minutes in 0.425% phosphoric acid and once in methanol prior to drying and scintillation counting.

Another data set has as its target SIK3 (h) (Homo sapiens (Human), UniProt Q9Y2K2). As to the kind of experiment: SIK3 kinase activity, Eurofins KinaseProfiler ([γ-33P]-ATP filter assay). In kind it is biochemical. The procedure:
as §1
SIK3 (h) was incubated with 8 mM MOPS pH 7.0, 0.2 mM EDTA, 100 μM […], 10 mM Magnesium acetate and [γ-33P-ATP](specific activity and concentration as required). The reaction was initiated by the addition of the Mg/ATP mix. After incubation for 40 minutes at room temperature, the reaction is stopped by the addition of phosphoric acid to a concentration of 0.5%, […] of the reaction was then spotted onto a P30 filtermat and washed four times for 4 minutes in 0.425% phosphoric acid and once in methanol prior to drying and scintillation counting.

A further data set has as its target SIK1 (Homo sapiens (Human), UniProt P57059). As to the kind of experiment: cell-based.
The mark [2] stands for this setting: Table 5, macrocycle precursors, read-out: IC50 nM SIK2.
[3] abbreviates: Table 6, macrocycles, read-out: IC50 nM SIK2.

We go through 19 compounds from patent US20250340556A1, “PYRIMIDOPYRIMIDONE COMPOUNDS AND METHODS OF USE THEREOF” (Soltego, Inc., priority 2022, published 2025).

Structures are written as SMILES. Where two headings read alike, the source gives them in different places.

SIK1, sequence (P57059 whole entry): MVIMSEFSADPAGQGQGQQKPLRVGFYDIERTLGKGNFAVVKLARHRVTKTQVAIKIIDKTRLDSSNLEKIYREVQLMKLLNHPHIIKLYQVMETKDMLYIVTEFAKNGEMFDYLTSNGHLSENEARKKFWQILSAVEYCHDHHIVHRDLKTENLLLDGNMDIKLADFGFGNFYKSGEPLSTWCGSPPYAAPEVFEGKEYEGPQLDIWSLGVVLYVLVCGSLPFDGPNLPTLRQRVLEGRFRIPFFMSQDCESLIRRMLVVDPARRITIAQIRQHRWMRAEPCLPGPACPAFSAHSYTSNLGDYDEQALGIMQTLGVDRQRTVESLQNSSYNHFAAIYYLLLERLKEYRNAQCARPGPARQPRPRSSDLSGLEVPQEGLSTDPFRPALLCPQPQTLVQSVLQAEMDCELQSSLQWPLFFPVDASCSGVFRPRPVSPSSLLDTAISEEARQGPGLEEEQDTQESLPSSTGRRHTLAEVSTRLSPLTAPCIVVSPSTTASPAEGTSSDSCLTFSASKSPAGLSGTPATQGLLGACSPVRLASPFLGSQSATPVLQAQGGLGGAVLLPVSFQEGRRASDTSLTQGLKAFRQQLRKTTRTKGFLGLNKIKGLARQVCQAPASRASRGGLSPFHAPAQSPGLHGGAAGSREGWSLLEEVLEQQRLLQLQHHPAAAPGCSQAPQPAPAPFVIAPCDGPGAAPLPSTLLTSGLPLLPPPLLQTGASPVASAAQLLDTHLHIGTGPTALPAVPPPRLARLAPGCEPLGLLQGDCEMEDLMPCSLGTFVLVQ

For `COc1cc(F)c2cc1Nc1ncc3c(n1)N(CCCC(=O)OC2)C(=O)N(c1c(C)cccc1C)C3`, the ring closure, isolated yield in data set [1] (from COc1cc(F)c(CO)cc1Nc1ncc2c(n1)N(CCCC(=O)O)C(=O)N(c1c(C)cccc1C)C2, 14-membered ring, DCC/DMAP/3A MS, DCM/DMF, 6.89 mM, 25.0 °C, 16.0 h) is 57%.

`COc1cc(N2CCN(C)CC2)c2cc1Nc1ncc3c(n1)N(CCCC(=O)OC2)C(=O)N(c1c(C)cccc1C)C3` showed a ring closure, isolated yield in data set [1] (from COc1cc(N2CCN(C)CC2)c(CO)cc1Nc1ncc2c(n1)N(CCCC(=O)O)C(=O)N(c1c(C)cccc1C)C2, 14-membered ring, DCC/DMAP/3A MS, DCM/DMF, 6.69 mM, 25.0 °C, 16.0 h) of 6%.

In the case of `CCCCCCCCCCCCOS(=O)(=O)[O-].[Na+]` [SDS, reference compound], the viability of cells result with B16 4A5 cells was “strongly and significantly diminished”.

Consider `COC(=O)CCCN1C(=O)N(c2c(C)cccc2C)Cc2cnc(Nc3ccc(N4CCN(C)CC4)c(CO)c3)nc21` [SLT-019], for which the IC50 at SIK2 (h) (setting [2]) was found to be 3 nM; against SIK (h) / SIK1 (Table 5, macrocycle precursors), 2 nM; against SIK3 (h) (Table 5, macrocycle precursors), 8 nM.

As for `Cc1cccc(C)c1N1Cc2cnc(Nc3ccc(N4CCN(C)CC4)c(CO)c3)nc2N(CCC(=O)O)C1=O` [SLT-020], the IC50 at SIK2 (h) (setting [2]) came out at 10 nM; on SIK (h) / SIK1 (Table 5, macrocycle precursors), 5 nM; at SIK3 (h) (Table 5, macrocycle precursors) it was 43 nM.

As to `Cc1cccc(C)c1N1Cc2cnc(Nc3ccc(N4CCN(C)CC4)c(CO)c3)nc2N(CCCC(=O)O)C1=O` [SLT-025], the IC50 on SIK2 (h) (setting [2]) was 6 nM; at SIK (h) / SIK1 (Table 5, macrocycle precursors), 3 nM; against SIK3 (h) (Table 5, macrocycle precursors), 21 nM.

As to `Cc1cccc(C)c1N1Cc2cnc(Nc3ccc(N4CCN(C)CC4)c(CO)c3)nc2N(CCCCC(=O)O)C1=O` [SLT-027], the IC50 at SIK2 (h) (setting [2]) is 5 nM; against SIK (h) / SIK1 (Table 5, macrocycle precursors), 2 nM; on SIK3 (h) (Table 5, macrocycle precursors), 21 nM. On SIK1, this compound showed an EC50 of 408 nM.

`Cc1cccc(C)c1N1Cc2cnc3nc2N(CCCCC(=O)OCc2cc(ccc2N2CCN(C)CC2)N3)C1=O` [SLT-033] yielded a ring closure, isolated yield in data set [1] (from Cc1cccc(C)c1N1Cc2cnc(Nc3ccc(N4CCN(C)CC4)c(CO)c3)nc2N(CCCCC(=O)O)C1=O, 15-membered ring, DCC/DMAP/3A MS, DCM/DMF, 7.69 mM, 25.0 °C) of 14%. Besides, the IC50 at SIK2 (h) (setting [3]) came to 0.8 nM. The compound further yielded an EC50 on SIK1 of 6.08 nM.

As for `Cc1cccc(C)c1N1Cc2cnc3nc2N(CCCCCOC(=O)c2cc(ccc2N2CCN(C)CC2)N3)C1=O` [SLT-038], the ring closure, isolated yield in data set [1] (from Cc1cccc(C)c1N1Cc2cnc(Nc3ccc(N4CCN(C)CC4)c(C(=O)O)c3)nc2N(CCCCCO)C1=O, 15-membered ring, 2,4,6-trichlorobenzoyl chloride/TEA, DMAP, toluene/DMF, 5.0 mM, 110.0 °C, 16.0 h) stood at 6%. For the same compound, the IC50 on SIK2 (h) (setting [3]) is 1 nM. On SIK1, this compound displayed an EC50 of 4.37 nM.

Turning to `Cc1cccc(C)c1N1Cc2cnc3nc2N(CCCOC(=O)c2cc(ccc2N2CCN(C)CC2)N3)C1=O` [SLT-041], the ring closure, isolated yield in data set [1] (from Cc1cccc(C)c1N1Cc2cnc(Nc3ccc(N4CCN(C)CC4)c(C(=O)O)c3)nc2N(CCCO)C1=O, 13-membered ring, EDC.HCl/HOBt/DMAP/3A MS, DCM, 7.99 mM, 50.0 °C, 16.0 h) amounted to 30%. On SIK1, the EC50 is 10.5 nM.

In the case of `COc1cc(Br)c2cc1Nc1ncc3c(n1)N(CCCC(=O)OC2)C(=O)N(c1c(C)cccc1C)C3` [SLT-058], the ring closure, isolated yield in data set [1] (from COc1cc(Br)c(CO)cc1Nc1ncc2c(n1)N(CCCC(=O)O)C(=O)N(c1c(C)cccc1C)C2, 14-membered ring, DCC/DMAP/3A MS, DCM/DMF, 4.96 mM, 25.0 °C, 16.0 h) worked out at 20%. Moreover, the 50% inhibitory concentration (IC50) worked out at 201 nM at SIK2 (h) (setting [3]); 26 nM against SIK (h) / SIK1 (Table 6, macrocycles); 339 nM at SIK3 (h) (Table 6, macrocycles).

`Cc1cccc(C)c1N1Cc2cnc3nc2N(CCCCOC(=O)Cc2cc(ccc2N2CCN(C)CC2)N3)C1=O` [SLT-059]: in data set [1] (from Cc1cccc(C)c1N1Cc2cnc(Nc3ccc(N4CCN(C)CC4)c(CC(=O)O)c3)nc2N(CCCCO)C1=O, 15-membered ring, 2,4,6-trichlorobenzoyl chloride/TEA, DMAP, toluene/DMF, 5.0 mM, 110.0 °C, 16.0 h), the ring closure, isolated yield came out at 13%. Moreover, the IC50 on SIK2 (h) is greater than 500 nM; at SIK2 (h) (setting [3]), 250 nM; against SIK (h) / SIK1 (Table 6, macrocycles), 286 nM.

Turning to `Cc1cccc(C)c1N1Cc2cnc3nc2N(C/C=C/CC(=O)OCc2cc(ccc2N2CCN(C)CC2)N3)C1=O` [SLT-061], the IC50 at SIK2 (h) (setting [3]) is 2 nM.

For the compound `Cc1cccc(C)c1N1Cc2cnc3nc2N(C/C=C\CC(=O)OCc2cc(ccc2N2CCN(C)CC2)N3)C1=O` [SLT-062], the IC50 against SIK2 (h) was 0.8 nM.

Regarding `Cc1cccc(C)c1N1Cc2cnc3nc2N(C/C=C/COC(=O)Cc2cc(ccc2N2CCN(C)CC2)N3)C1=O` [SLT-068], the IC50 at SIK2 (h) (setting [3]) worked out at 17 nM.

With `Cc1cccc(C)c1N1Cc2cnc3nc2N(CCCCOC(=O)C(C)c2cc(ccc2N2CCN(C)CC2)N3)C1=O` (stereo not drawn) [SLT-070], the IC50 at SIK2 (h) (setting [3]) was 2 nM.

`Cc1cccc(C)c1N1Cc2cnc3nc2N(CCCOC(=O)C(C)c2cc(ccc2N2CCN(C)CC2)N3)C1=O` (stereo not drawn) [SLT-071]: at SIK2 (h) (setting [3]), the IC50 was 3 nM.

The compound `Cc1cccc(C)c1N1Cc2cnc3nc2N(C/C=C\C(=O)OCc2cc(ccc2N2CCN(C)CC2)N3)C1=O` [SLT-073] yielded an IC50 on SIK2 (h) of 0.7 nM.

For the compound `Cc1cccc(C)c1N1Cc2cnc3nc2N(C/C=C/CCOC(=O)c2cc(ccc2N2CCN(C)CC2)N3)C1=O` [SLT-079], the IC50 on SIK2 (h) (setting [3]) was determined as 1 nM.

The term IC50 denotes the concentration at which inhibition is half-maximal. The EC50 is the concentration giving half of the maximal effect. A higher EC50 goes with a need for much substance.
